Experimental data published in DBAASP.
≈ marks a conversion by molar mass, not a printed value.

Key:
Assay in all cases: ≥ marks a high value that may be exact or a test limit, other limits are often not marked, values filed in µg/mL are converted to µM
[1] = system: Pseudomonas aeruginosa ATCC 9027
[2] = system: Staphylococcus aureus ATCC 6538
[3] = system: Staphylococcus epidermidis KCTC 1917
[4] = system: Salmonella typhimurium KCTC 1926
[5] = system: Staphylococcus aureus KCTC 1621
[6] = system: Bacillus subtilis KCTC 3068
[7] = system: Escherichia coli KCTC 1682
[8] = system: Pseudomonas aeruginosa KCTC 1637
[9] = system: Candida albicans ATCC 90028
[10] = system: Escherichia coli ATCC 25922
[11] = system: Pseudomonas aeruginosa ATCC 27853
[12] = system: Staphylococcus aureus ATCC 29213

## CC(C)C[C@H](NC(=O)[C@H](C)NC(=O)[C@H](CCCCN)NC(=O)[C@H](CC(C)C)NC(=O)[C@H](C)NC(=O)[C@H](CCCCN)NC(=O)[C@H](CC(C)C)NC(=O)[C@H](CC(C)C)NC(=O)[C@H](C)NC(=O)[C@H](CCCCN)NC(=O)[C@H](CC(C)C)NC(=O)[C@H](C)NC(=O)[C@H](CCCCN)NC(=O)[C@H](C)NC(=O)[C@@H](N)Cc1ccccc1)C(N)=O [FAKALKALLKALKAL]
[1]
  MIC: > 125 µM
[2]
  MIC: 3.13 µM (≈ 5 µg/mL)

## CC(C)C[C@H](NC(=O)[C@H](CC(C)C)NC(=O)[C@H](CCCCN)NC(=O)[C@H](CCCCN)NC(=O)[C@H](C)NC(=O)[C@H](CC(C)C)NC(=O)[C@H](CCCCN)NC(=O)[C@H](C)NC(=O)[C@@H](N)Cc1ccccc1)C(N)=O [FAKLAKKLL]
[1]
  MIC: 97 µM (≈ 99.9 µg/mL)
[2]
  MIC: 194 µM (≈ 200 µg/mL)

## CC(C)C[C@H](NC(=O)[C@H](C)NC(=O)[C@H](Cc1ccccc1)NC(=O)[C@H](CCCCN)NC(=O)[C@H](CCCCN)NC(=O)[C@H](CC(C)C)NC(=O)[C@H](C)NC(=O)[C@H](CCCCN)NC(=O)[C@H](C)NC(=O)[C@H](CC(C)C)NC(=O)[C@H](CC(C)C)NC(=O)[C@H](CCCCN)NC(=O)[C@H](C)NC(=O)[C@@H](N)Cc1ccccc1)C(N)=O [FAKLLAKALKKFAL]
[1]
  MIC: 16 µM (≈ 25 µg/mL)
[2]
  MIC: 32 µM (≈ 50 µg/mL)

## CC(C)C[C@H](NC(=O)[C@H](CCCCN)NC(=O)[C@H](CC(C)C)NC(=O)[C@H](CCCCN)NC(=O)[C@H](C)NC(=O)[C@H](CC(C)C)NC(=O)[C@H](CCCCN)NC(=O)[C@H](C)NC(=O)[C@H](CC(C)C)NC(=O)[C@H](CC(C)C)NC(=O)[C@H](CCCCN)NC(=O)[C@H](C)NC(=O)[C@@H](N)Cc1ccccc1)C(N)=O [FAKLLAKLAKLKL]
[1]
  MIC: 34.3 µM (≈ 50 µg/mL)
[2]
  MIC: 3.43 µM (≈ 5 µg/mL)

## CC(C)C[C@H](NC(=O)[C@H](C)NC(=O)[C@H](Cc1c[nH]c2ccccc12)NC(=O)[C@H](CCCCN)NC(=O)[C@H](CC(N)=O)NC(=O)[C@H](Cc1c[nH]c2ccccc12)NC(=O)[C@H](CCCCN)NC(=O)[C@H](CCCCN)NC(=O)[C@H](CCCN=C(N)N)NC(=O)[C@@H](N)Cc1ccccc1)C(=O)N[C@@H](CO)C(=O)N[C@@H](CCCN=C(N)N)C(N)=O [FRKKWNKWALSR]
[3]
  MIC: 8 µM (≈ 13 µg/mL)
[4]
  MIC: 4 µM (≈ 6.48 µg/mL)
[5]
  MIC: 16 µM (≈ 25.9 µg/mL)
[6]
  MIC: 8 µM (≈ 13 µg/mL)
[7]
  MIC: 4 µM (≈ 6.48 µg/mL)
[8]
  MIC: 16 µM (≈ 25.9 µg/mL)

## CC[C@H](C)[C@H](N)C(=O)N[C@@H](CC(C)C)C(=O)NCC(=O)N[C@@H](CCCCN)C(=O)N[C@H](C(=O)N[C@@H](C)C(=O)N[C@@H](CCC(=O)O)C(=O)NCC(=O)N[C@H](C(=O)N[C@@H](CCCCN)C(=O)N[C@@H](CO)C(=O)N[C@@H](CC(C)C)C(=O)N[C@@H](Cc1ccccc1)C(N)=O)[C@@H](C)CC)[C@@H](C)CC [ILGKIAEGIKSLF]
[3]
  MIC: ≥ 64 µM
[4]
  MIC: ≥ 64 µM
[5]
  MIC: ≥ 64 µM
[7]
  MIC: ≥ 64 µM
[8]
  MIC: ≥ 32 µM

## CC[C@H](C)[C@H](NC(=O)[C@H](CCCN=C(N)N)NC(=O)[C@H](CCC(N)=O)NC(=O)[C@@H](NC(=O)[C@@H](NC(=O)[C@H](CCCCN)NC(=O)[C@@H](N)CCCCN)[C@@H](C)CC)C(C)C)C(=O)N[C@@H](CCCCN)C(=O)N[C@@H](CC(=O)O)C(=O)N[C@@H](Cc1ccccc1)C(=O)N[C@@H](CC(C)C)C(=O)N[C@@H](CCCN=C(N)N)C(=O)O [KKIVQRIKDFLR]
[9]
  MIC: 10 µM (≈ 15.4 µg/mL)
[10]
  MIC: 5 µM (≈ 7.72 µg/mL)
[11]
  MIC: 10 µM (≈ 15.4 µg/mL)
[12]
  MIC: 5 µM (≈ 7.72 µg/mL)
